Each block holds one compound with its values, some of them ahead of it. Calls of active or inactive are those of the source. No cut-off for these calls is given here.
Legend:
[1] = target: T1, von Hippel-Lindau disease tumor suppressor/Bromodomain-containing protein 2 (Homo sapiens, UniProt P25440+P40337); experiment: Bump and hole PROTAC activity at BromoTag-Brd2/VHL-bound E3 ligase in HEK293 cells assessed as Brd2 degradation at 1 uM measured after 6 hrs by Western blot analysis; format: cell-based
Target sequence in this assay (P25440 whole entry, looked up): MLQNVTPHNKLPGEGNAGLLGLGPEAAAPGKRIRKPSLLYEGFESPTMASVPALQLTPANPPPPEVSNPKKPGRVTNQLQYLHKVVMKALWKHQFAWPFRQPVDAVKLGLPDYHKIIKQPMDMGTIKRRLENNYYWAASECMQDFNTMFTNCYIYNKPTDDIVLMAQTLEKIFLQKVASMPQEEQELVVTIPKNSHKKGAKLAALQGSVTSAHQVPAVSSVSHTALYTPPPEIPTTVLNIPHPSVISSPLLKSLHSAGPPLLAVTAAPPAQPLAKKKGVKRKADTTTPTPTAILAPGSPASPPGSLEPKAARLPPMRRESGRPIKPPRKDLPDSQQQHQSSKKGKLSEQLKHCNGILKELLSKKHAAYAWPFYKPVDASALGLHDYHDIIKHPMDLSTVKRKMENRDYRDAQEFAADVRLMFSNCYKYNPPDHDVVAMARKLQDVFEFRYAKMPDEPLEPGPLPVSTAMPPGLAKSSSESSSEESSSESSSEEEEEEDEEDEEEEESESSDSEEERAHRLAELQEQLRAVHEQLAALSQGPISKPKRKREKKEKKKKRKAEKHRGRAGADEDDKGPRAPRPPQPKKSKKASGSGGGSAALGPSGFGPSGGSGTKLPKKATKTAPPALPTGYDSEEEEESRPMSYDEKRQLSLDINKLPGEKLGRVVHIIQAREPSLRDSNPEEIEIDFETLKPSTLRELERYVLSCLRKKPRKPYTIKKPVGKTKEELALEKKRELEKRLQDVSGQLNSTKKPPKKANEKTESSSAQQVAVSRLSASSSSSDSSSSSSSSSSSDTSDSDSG
Target sequence in this assay (P40337 whole entry, looked up): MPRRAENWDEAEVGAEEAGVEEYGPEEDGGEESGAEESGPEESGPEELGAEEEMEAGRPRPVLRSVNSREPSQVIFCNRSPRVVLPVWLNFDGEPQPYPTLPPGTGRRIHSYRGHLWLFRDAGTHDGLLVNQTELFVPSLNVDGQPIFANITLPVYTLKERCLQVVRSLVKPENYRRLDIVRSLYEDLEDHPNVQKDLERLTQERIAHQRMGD

[2] = target: T1, von Hippel-Lindau disease tumor suppressor/Bromodomain-containing protein 2; experiment: Bump and hole PROTAC activity at BromoTag-Brd2/VHL-bound E3 ligase in HEK293 cells assessed as Brd2 degradation at 0.001 to 10 uM measured after 6 hrs by Western blot analysis; format: cell-based; conditions: dose 0.001-10 µM
Target sequence in this assay (P25440 whole entry, looked up): as the sequence (P25440 whole entry, looked up) above
Target sequence in this assay (P40337 whole entry, looked up): as the sequence (P40337 whole entry, looked up) above

[3] = Half life in C57BL/6 mouse at 5 mg/kg, iv measured up to 8 hrs by LC-MS analysis; format: ADME, organism-based; conditions: in vivo
[4] = AUC (0 to infinity) in C57BL/6 mouse at 5 mg/kg, sc measured up to 8 hrs by LC-MS analysis; format: ADME, organism-based; parameters: dose 5 mg/kg, time < 8 hrs, route sc; conditions: in vivo
[5] = Bioavailability in C57BL/6 mouse at 5 mg/kg, sc measured up to 8 hrs by LC-MS analysis; format: ADME, organism-based; conditions: in vivo
[6] = Half life in C57BL/6 mouse at 5 mg/kg, sc measured up to 8 hrs by LC-MS analysis; format: ADME, organism-based; conditions: in vivo
[7] = MRT (0 to infinity) in C57BL/6 mouse at 5 mg/kg, iv measured up to 8 hrs by LC-MS analysis; conditions: in vivo
[8] = target: T1, von Hippel-Lindau disease tumor suppressor/Bromodomain-containing protein 2; experiment: Bump and hole PROTAC activity at BromoTag-Brd2/VHL-bound E3 ligase in HEK293 cells assessed as Brd2 degradation measured after 6 hrs by Western blot analysis; format: cell-based
Target sequence in this assay (P25440 whole entry): as the sequence (P25440 whole entry, looked up) above
Target sequence in this assay (P40337 whole entry): as the sequence (P40337 whole entry, looked up) above

[9] = system: CWR22R; experiment: cells; conditions: Homo sapiens, 22Rv1, 48 h, read-out: pEC50 (converted)
Description: Antiproliferative activity against human BET-sensitive 22Rv1 cells assessed as reduction in cell viability measured after 48 hrs by Celltiter-Glo assay

[10] = Stability in mouse plasma measured up to 60 mins; format: ADME, cell-free; conditions: 1 h

Compound: Cc1ncsc1-c1ccc([C@H](C)NC(=O)[C@@H]2C[C@@H](O)CN2C(=O)[C@@H](NC(=O)COCCCOCCOC(=O)C(C)C2N=C(c3ccc(Cl)cc3)c3c(sc(C)c3C)-n3c(C)nnc32)C(C)(C)C)cc1 (mixture of isomers)
Brd2 degradation activity [2]: Active

Compound: Cc1ncsc1-c1ccc(CNC(=O)[C@@H]2C[C@@H](O)CN2C(=O)[C@@H](NC(=O)COCCOCCOCCNC(=O)C[C@@H]2N=C(c3ccc(Cl)cc3)c3c(sc(C)c3C)-n3c(C)nnc32)C(C)(C)C)cc1
half-life [3]: 1.04 h | AUC(0-inf) [4]: 3.76 µM·h | bioavailability [5]: 83% | half-life [6]: 2.95 h | MRT inf [7]: 0.34 h

Compound: CCC(C(=O)OCCOCCCOCC(=O)N[C@H](C(=O)N1C[C@H](O)C[C@H]1C(=O)N[C@@H](C)c1ccc(-c2scnc2C)cc1)C(C)(C)C)C1N=C(c2ccc(Cl)cc2)c2c(sc(C)c2C)-n2c(C)nnc21 (mixture of isomers)
pDC50 [8]: 7.8

Compound: Cc1ncsc1-c1ccc([C@H](C)NC(=O)[C@@H]2C[C@@H](O)CN2C(=O)[C@@H](NC(=O)COCCCOCCNC(=O)C(C)C2N=C(c3ccc(Cl)cc3)c3c(sc(C)c3C)-n3c(C)nnc32)C(C)(C)C)cc1 (mixture of isomers)
Brd2 degradation activity [2]: Active

Compound: Cc1ncsc1-c1ccc(CNC(=O)[C@@H]2C[C@@H](O)CN2C(=O)[C@@H](NC(=O)COCCOCCOCCOC(=O)C(C)C2N=C(c3ccc(Cl)cc3)c3c(sc(C)c3C)-n3c(C)nnc32)C(C)(C)C)cc1 (mixture of isomers)
Brd2 degradation activity [2]: Active

Compound: CCC(C(=O)NCCOCCCOCC(=O)N[C@H](C(=O)N1C[C@H](O)C[C@H]1C(=O)N[C@@H](C)c1ccc(-c2scnc2C)cc1)C(C)(C)C)C1N=C(c2ccc(Cl)cc2)c2c(sc(C)c2C)-n2c(C)nnc21 (mixture of isomers)
Brd2 degradation activity [2]: Active

Results, then the compound that gave them:

Activity [1]: inactive
Compound: CC[C@@H](C(=O)NCCOCCOCCOCC(=O)N[C@H](C(=O)N1C[C@H](O)C[C@H]1C(=O)NCc1ccc(-c2scnc2C)cc1)C(C)(C)C)[C@@H]1N=C(c2ccc(Cl)cc2)c2cc(OC)ccc2-n2c(C)nnc21 (mixture of isomers)

Brd2 degradation activity [2]: Active
Compound: Cc1ncsc1-c1ccc(CNC(=O)[C@@H]2C[C@@H](O)CN2C(=O)[C@@H](NC(=O)COCCOCCOCCNC(=O)C(C)C2N=C(c3ccc(Cl)cc3)c3c(sc(C)c3C)-n3c(C)nnc32)C(C)(C)C)cc1 (mixture of isomers)

EC50 [9]: 5.01 µM
Compound: CC[C@@H](C(=O)OCCOCCOCCOCC(=O)N[C@H](C(=O)N1C[C@@H](O)C[C@H]1C(=O)NCc1ccc(-c2scnc2C)cc1)C(C)(C)C)[C@@H]1N=C(c2ccc(Cl)cc2)c2c(sc(C)c2C)-n2c(C)nnc21

Stability [10]: Stable | bioavailability [5]: 140%
Compound: CC[C@@H](C(=O)OCCOCCOCCOCC(=O)N[C@H](C(=O)N1C[C@H](O)C[C@H]1C(=O)NCc1ccc(-c2scnc2C)cc1)C(C)(C)C)[C@@H]1N=C(c2ccc(Cl)cc2)c2c(sc(C)c2C)-n2c(C)nnc21

Activity [1]: inactive
Compound: COc1ccc2c(c1)-n1c(C)nnc1[C@H]([C@@H](C)C(=O)NCCOCCOCCOCC(=O)N[C@H](C(=O)N1C[C@H](O)C[C@H]1C(=O)NCc1ccc(-c3scnc3C)cc1)C(C)(C)C)N=C2c1ccc(Cl)cc1 (mixture of isomers)

Activity [1]: inactive
Compound: CC[C@@H](C(=O)NCCOCCOCCOCC(=O)N[C@H](C(=O)N1C[C@H](O)C[C@H]1C(=O)NCc1ccc(-c2scnc2C)cc1)C(C)(C)C)[C@@H]1N=C(c2ccc(Cl)cc2)c2ccc(OC)cc2-n2c(C)nnc21 (mixture of isomers)

— ChEMBL document CHEMBL5053531, “Development of BromoTag: A "Bump-and-Hole"-PROTAC System to Induce Potent, Rapid, and Selective Degradation of Tagged Target Proteins” (J Med Chem, 2021)
